Assay results taken from the kinase profiling compilation of Christmann-Franck et al. (2016).
Blank lines part the entries; values can stand above or below the molecule they belong to.

Legend:
Assay in all cases: radiometric filter-binding kinase assay
[1] = molecular target: BRSK1 (human) (UniProt Q8TDC3)
[2] = molecular target: BRSK2 (human) (UniProt Q8IWQ3)
[3] = molecular target: CAMKK2 (human) (UniProt Q96RR4)
[4] = molecular target: DAPK1 (human) (UniProt P53355)
[5] = molecular target: DYRK1A (human) (UniProt Q13627)
[6] = molecular target: EEF2K (human) (UniProt O00418)
[7] = molecular target: EPHB4 (human) (UniProt P54760)
[8] = molecular target: ERBB4 (human) (UniProt Q15303)
ERBB4 (human), sequence (Q15303 whole entry, looked up): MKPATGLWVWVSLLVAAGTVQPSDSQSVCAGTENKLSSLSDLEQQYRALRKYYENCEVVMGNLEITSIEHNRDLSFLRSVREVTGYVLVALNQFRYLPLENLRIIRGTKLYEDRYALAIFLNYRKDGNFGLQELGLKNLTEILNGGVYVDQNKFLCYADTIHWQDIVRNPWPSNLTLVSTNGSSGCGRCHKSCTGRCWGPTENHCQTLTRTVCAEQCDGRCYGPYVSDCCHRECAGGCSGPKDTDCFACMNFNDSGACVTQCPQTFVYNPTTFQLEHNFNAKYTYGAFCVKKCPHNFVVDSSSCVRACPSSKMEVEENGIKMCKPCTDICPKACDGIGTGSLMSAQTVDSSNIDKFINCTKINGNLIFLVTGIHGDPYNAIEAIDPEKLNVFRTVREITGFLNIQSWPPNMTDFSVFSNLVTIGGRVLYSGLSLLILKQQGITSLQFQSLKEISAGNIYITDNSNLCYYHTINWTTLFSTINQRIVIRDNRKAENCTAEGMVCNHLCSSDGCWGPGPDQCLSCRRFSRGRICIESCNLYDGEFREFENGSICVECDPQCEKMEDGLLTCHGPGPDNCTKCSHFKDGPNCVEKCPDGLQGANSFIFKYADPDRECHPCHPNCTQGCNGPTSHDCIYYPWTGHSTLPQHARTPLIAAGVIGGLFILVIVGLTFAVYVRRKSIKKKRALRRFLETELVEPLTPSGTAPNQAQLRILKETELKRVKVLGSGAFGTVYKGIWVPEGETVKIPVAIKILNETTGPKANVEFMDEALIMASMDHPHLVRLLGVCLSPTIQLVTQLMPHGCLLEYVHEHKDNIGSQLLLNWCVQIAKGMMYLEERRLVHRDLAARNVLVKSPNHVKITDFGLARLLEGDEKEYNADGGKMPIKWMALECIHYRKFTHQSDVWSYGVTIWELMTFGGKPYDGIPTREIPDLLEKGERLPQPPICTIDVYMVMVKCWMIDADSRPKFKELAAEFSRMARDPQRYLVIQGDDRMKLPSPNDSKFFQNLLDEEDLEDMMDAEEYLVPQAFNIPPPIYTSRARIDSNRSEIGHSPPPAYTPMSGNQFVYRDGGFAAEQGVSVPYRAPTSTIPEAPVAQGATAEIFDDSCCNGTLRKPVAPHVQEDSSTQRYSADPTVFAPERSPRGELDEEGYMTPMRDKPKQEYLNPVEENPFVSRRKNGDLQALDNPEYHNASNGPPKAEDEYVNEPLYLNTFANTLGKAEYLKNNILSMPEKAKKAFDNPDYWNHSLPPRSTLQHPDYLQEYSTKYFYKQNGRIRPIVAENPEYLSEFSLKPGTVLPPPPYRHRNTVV

[9] = molecular target: FGFR1 (human) (UniProt P11362)
[10] = molecular target: GSK3B (human) (UniProt P49841)
[11] = molecular target: HIPK3 (human) (UniProt Q9H422)
[12] = molecular target: IGF1R (human) (UniProt P08069)
[13] = molecular target: IKBKE (human) (UniProt Q14164)
IKBKE (human), sequence (Q14164 whole entry, looked up): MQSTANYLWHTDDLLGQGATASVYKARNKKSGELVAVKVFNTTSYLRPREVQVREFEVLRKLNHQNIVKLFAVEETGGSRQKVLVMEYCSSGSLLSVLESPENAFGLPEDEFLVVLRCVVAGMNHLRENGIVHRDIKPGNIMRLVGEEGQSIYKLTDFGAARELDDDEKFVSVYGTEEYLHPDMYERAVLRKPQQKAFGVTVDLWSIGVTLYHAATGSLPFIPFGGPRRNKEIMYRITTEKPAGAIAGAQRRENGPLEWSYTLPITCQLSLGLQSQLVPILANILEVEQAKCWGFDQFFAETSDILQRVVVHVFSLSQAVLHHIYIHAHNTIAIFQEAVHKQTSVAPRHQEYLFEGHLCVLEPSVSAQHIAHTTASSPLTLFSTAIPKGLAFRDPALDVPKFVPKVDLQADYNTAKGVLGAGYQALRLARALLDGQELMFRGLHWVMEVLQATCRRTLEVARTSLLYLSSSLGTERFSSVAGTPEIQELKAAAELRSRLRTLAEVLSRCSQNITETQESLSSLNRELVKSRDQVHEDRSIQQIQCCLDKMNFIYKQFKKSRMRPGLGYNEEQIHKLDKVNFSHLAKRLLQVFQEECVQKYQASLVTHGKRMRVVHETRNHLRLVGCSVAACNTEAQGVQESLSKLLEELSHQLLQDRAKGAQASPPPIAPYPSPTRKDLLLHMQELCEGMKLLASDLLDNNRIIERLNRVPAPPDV

[14] = molecular target: MAP2K2 (human) (UniProt P36507)
MAP2K2 (human), sequence (P36507 whole entry, looked up): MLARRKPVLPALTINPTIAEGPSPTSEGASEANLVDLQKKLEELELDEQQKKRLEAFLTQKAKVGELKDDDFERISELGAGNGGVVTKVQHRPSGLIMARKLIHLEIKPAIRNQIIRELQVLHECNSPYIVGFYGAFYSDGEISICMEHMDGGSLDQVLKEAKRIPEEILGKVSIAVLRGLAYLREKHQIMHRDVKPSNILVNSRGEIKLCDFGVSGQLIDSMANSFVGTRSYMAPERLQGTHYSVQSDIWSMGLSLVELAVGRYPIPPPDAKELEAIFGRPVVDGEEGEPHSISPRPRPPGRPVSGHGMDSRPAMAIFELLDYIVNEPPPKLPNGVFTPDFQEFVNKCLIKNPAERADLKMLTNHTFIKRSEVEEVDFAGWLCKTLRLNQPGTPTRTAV

[15] = molecular target: MAP2K6 (human) (UniProt P52564)
MAP2K6 (human), sequence (P52564 whole entry, looked up): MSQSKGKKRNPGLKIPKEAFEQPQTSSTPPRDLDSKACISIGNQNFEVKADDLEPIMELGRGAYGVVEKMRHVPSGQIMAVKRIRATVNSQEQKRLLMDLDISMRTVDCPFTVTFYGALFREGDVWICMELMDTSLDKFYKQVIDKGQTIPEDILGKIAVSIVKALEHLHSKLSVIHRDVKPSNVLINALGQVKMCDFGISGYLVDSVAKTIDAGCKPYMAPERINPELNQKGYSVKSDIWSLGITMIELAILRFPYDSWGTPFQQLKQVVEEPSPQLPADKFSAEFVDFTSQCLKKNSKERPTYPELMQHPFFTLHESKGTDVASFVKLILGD

[16] = molecular target: MAP3K5 (human) (UniProt Q99683)
[17] = molecular target: MAPK12 (human) (UniProt P53778)
MAPK12 (human), sequence (P53778 whole entry, looked up): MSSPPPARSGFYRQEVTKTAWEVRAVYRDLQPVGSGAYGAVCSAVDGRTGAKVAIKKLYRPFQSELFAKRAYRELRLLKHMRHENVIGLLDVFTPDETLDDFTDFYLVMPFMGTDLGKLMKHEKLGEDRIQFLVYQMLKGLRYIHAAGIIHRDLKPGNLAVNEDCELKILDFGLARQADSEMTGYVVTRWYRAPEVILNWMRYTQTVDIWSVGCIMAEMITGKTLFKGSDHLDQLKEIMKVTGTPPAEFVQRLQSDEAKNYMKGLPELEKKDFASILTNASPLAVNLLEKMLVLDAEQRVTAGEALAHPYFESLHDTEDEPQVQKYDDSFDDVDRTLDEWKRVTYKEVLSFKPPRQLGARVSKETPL

[18] = molecular target: MAPK13 (human) (UniProt O15264)
MAPK13 (human), sequence (O15264 whole entry, looked up): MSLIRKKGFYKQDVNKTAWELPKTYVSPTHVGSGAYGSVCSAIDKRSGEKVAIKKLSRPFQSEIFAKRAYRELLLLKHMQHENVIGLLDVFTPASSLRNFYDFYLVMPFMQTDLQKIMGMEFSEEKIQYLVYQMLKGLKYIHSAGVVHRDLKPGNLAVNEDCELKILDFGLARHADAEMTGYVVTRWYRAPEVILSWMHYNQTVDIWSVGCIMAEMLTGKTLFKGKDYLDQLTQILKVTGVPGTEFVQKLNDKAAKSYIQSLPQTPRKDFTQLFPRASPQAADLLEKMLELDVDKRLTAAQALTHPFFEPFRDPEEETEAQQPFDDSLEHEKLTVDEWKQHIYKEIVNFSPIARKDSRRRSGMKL

[19] = molecular target: MAPK3 (human) (UniProt P27361)
MAPK3 (human), sequence (P27361 whole entry, looked up): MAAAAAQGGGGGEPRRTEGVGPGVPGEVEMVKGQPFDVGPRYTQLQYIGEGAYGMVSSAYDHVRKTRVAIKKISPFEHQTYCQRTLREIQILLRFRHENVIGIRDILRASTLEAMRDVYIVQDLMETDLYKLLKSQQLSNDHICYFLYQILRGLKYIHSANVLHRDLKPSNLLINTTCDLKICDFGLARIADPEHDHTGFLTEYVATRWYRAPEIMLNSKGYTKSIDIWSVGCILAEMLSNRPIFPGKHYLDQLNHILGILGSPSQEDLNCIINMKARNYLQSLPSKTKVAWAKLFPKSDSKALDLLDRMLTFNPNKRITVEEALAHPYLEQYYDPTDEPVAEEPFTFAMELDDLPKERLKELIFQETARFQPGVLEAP

[20] = molecular target: MAPK9 (human) (UniProt P45984)
[21] = molecular target: MARK1 (human) (UniProt Q9P0L2); details: compound 0.1 µM
[22] = molecular target: MELK (human) (UniProt Q14680)
[23] = molecular target: MKNK1 (human) (UniProt Q9BUB5)
[24] = molecular target: PAK7 (human) (UniProt Q9P286)
[25] = molecular target: PHKG1 (human) (UniProt Q16816)
[26] = molecular target: PIM1 (human) (UniProt P11309)
PIM1 (human), sequence (P11309 whole entry, looked up): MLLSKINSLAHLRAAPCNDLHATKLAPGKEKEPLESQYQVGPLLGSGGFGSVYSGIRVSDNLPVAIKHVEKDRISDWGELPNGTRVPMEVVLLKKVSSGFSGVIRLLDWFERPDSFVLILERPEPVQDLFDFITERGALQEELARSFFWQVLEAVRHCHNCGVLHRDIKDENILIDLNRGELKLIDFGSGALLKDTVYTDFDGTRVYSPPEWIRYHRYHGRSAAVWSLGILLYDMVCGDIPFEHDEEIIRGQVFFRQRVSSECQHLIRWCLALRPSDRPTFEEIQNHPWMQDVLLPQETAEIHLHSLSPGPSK

[27] = molecular target: PIM2 (human) (UniProt Q9P1W9)
[28] = molecular target: PIM3 (human) (UniProt Q86V86)
[29] = system: PRKAA1 or PRKAA2 (rat); details: accession and sequence are those of the human protein
[30] = molecular target: PRKACA (human) (UniProt P17612)
[31] = molecular target: PRKCZ (human) (UniProt Q05513)
PRKCZ (human), sequence (Q05513 whole entry, looked up): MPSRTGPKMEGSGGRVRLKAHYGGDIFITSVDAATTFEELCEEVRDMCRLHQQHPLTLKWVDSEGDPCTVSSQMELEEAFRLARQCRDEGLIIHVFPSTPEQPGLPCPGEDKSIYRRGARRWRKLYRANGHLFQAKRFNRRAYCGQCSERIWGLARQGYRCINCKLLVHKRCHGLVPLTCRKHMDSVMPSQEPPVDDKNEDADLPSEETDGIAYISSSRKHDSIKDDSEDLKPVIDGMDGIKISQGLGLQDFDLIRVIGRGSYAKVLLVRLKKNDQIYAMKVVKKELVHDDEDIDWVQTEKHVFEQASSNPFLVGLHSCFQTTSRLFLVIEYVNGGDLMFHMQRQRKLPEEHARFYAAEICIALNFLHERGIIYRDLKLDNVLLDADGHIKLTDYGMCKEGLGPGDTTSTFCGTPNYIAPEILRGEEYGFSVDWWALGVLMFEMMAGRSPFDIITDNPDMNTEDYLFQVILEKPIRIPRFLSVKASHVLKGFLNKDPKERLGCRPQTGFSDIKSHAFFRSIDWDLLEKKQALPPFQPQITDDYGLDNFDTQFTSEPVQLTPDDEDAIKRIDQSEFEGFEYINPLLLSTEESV

[32] = system: SGK1 (human), O00141 [S422D]; details: compound 0.1 µM
[33] = molecular target: STK3 (human) (UniProt Q13188)
[34] = molecular target: MAPKAPK2 (human) (UniProt P49137)
[35] = molecular target: MAPKAPK5 (human) (UniProt Q8IW41)
[36] = molecular target: SYK (human) (UniProt P43405)

residual activity ([1]; compound 0.1 µM): 94%
residual activity ([2]; compound 0.1 µM): 96%
residual activity ([3]; compound 0.1 µM): 95%
residual activity ([4]; compound 0.1 µM): 82%
residual activity ([5]; compound 0.1 µM): 94%
residual activity ([6]; compound 0.1 µM): 65%
residual activity ([7]; compound 0.1 µM): 76%
residual activity ([8]; compound 0.1 µM): 67%
residual activity ([9]; compound 0.1 µM): 110%
residual activity ([10]; compound 0.1 µM): 101%
residual activity ([11]; compound 0.1 µM): 101%
residual activity ([12]; compound 0.1 µM): 97%
residual activity ([13]; compound 0.1 µM): 88%
residual activity ([14]; compound 0.1 µM): 107%
residual activity ([15]; compound 0.1 µM): 100%
residual activity ([16]; compound 0.1 µM): 100%
residual activity ([17]; compound 0.1 µM): 94%
residual activity ([18]; compound 0.1 µM): 91%
residual activity ([19]; compound 0.1 µM): 93%
residual activity ([20]; compound 0.1 µM): 88%
residual activity [21]: 101%
residual activity ([22]; compound 0.1 µM): 106%
residual activity ([23]; compound 0.1 µM): 107%
residual activity ([24]; compound 0.1 µM): 98%
residual activity ([25]; compound 0.1 µM): 106%
residual activity ([26]; compound 0.1 µM): 116%
residual activity ([27]; compound 0.1 µM): 105%
residual activity ([28]; compound 0.1 µM): 111%
residual activity ([29]; compound 0.1 µM): 99%
residual activity ([30]; compound 0.1 µM): 105%
residual activity ([31]; compound 0.1 µM): 101%
residual activity [32]: 112%
residual activity ([33]; compound 0.1 µM): 102%
SMILES: CN1CCN(CCOc2cc(OC3CCOCC3)c3c(Nc4c(Cl)ccc5c4OCO5)ncnc3c2)CC1

residual activity ([1]; compound 0.1 µM): 99%
residual activity ([1]; compound 1.0 µM): 87%
residual activity ([2]; compound 0.1 µM): 87%
residual activity ([2]; compound 1.0 µM): 77%
residual activity ([3]; compound 1.0 µM): 63%
residual activity ([4]; compound 0.1 µM): 102%
residual activity ([4]; compound 1.0 µM): 90%
residual activity ([5]; compound 0.1 µM): 98%
residual activity ([5]; compound 1.0 µM): 84%
residual activity ([6]; compound 0.1 µM): 98%
residual activity ([6]; compound 1.0 µM): 95%
residual activity ([7]; compound 0.1 µM): 97%
residual activity ([7]; compound 1.0 µM): 98%
residual activity ([8]; compound 0.1 µM): 102%
residual activity ([8]; compound 1.0 µM): 98%
residual activity ([9]; compound 0.1 µM): 103%
residual activity ([9]; compound 1.0 µM): 82%
residual activity ([10]; compound 0.1 µM): 114%
residual activity ([10]; compound 1.0 µM): 90%
residual activity ([11]; compound 0.1 µM): 97%
residual activity ([11]; compound 1.0 µM): 90%
residual activity ([12]; compound 1.0 µM): 87%
residual activity ([13]; compound 0.1 µM): 92%
residual activity ([13]; compound 1.0 µM): 94%
residual activity ([14]; compound 0.1 µM): 98%
residual activity ([14]; compound 1.0 µM): 92%
residual activity ([15]; compound 0.1 µM): 100%
residual activity ([15]; compound 1.0 µM): 95%
residual activity ([16]; compound 0.1 µM): 100%
residual activity ([16]; compound 1.0 µM): 91%
residual activity ([17]; compound 0.1 µM): 99%
residual activity ([17]; compound 1.0 µM): 95%
residual activity ([18]; compound 0.1 µM): 96%
residual activity ([18]; compound 1.0 µM): 80%
residual activity ([19]; compound 0.1 µM): 103%
residual activity ([19]; compound 1.0 µM): 99%
residual activity ([20]; compound 1.0 µM): 17%
residual activity ([34]; compound 0.1 µM): 102%
residual activity ([34]; compound 1.0 µM): 100%
residual activity ([35]; compound 0.1 µM): 92%
residual activity ([35]; compound 1.0 µM): 82%
residual activity [21]: 114%
residual activity ([22]; compound 0.1 µM): 91%
residual activity ([22]; compound 1.0 µM): 63%
residual activity ([23]; compound 1.0 µM): 88%
residual activity ([24]; compound 0.1 µM): 100%
residual activity ([24]; compound 1.0 µM): 82%
residual activity ([25]; compound 0.1 µM): 85%
residual activity ([25]; compound 1.0 µM): 86%
residual activity ([26]; compound 0.1 µM): 104%
residual activity ([26]; compound 1.0 µM): 89%
residual activity ([27]; compound 0.1 µM): 104%
residual activity ([27]; compound 1.0 µM): 99%
residual activity ([28]; compound 1.0 µM): 83%
residual activity ([29]; compound 0.1 µM): 101%
residual activity ([29]; compound 1.0 µM): 77%
residual activity ([30]; compound 0.1 µM): 105%
residual activity ([30]; compound 1.0 µM): 93%
residual activity ([31]; compound 0.1 µM): 116%
residual activity ([31]; compound 1.0 µM): 89%
residual activity ([33]; compound 1.0 µM): 72%
residual activity ([36]; compound 0.1 µM): 103%
residual activity ([36]; compound 1.0 µM): 88%
SMILES: Cc1cc(NC(=O)c2cccc(NC(=O)/C=C/CN(C)C)c2)ccc1Nc1nccc(-c2cccnc2)n1
